Results as given in paper PMC7395068, “The evolution of strategies to minimise the risk of human drug-induced liver injury (DILI) in drug discovery and development” (Archives of Toxicology, 2020).
Read-outs that look alike come from different tables or passages of the source.

How the values were obtained:
[1] = Plasma free fraction (fu) and unbound Cmax (Cmax,u); assay type: in vitro ADME, human; conditions: unbound plasma Cmax
HepG2 = tested on: HepG2; set-up: method as in Albrecht 2019; conditions: In vitro Assay; ref Albrecht 2019; cited from earlier work
[2] = cited from earlier work
HepG2 cells [3] = conditions: cited from earlier work
HepG2 cells [4] = conditions: cited from earlier work; remark: listed apart in the source
[5] = tested on: THLE or HepG2 cells, isolated mitochondria, BSEP; conditions: cited from earlier work
PHH [6] = conditions: cited from earlier work
hLiMTs [7] = conditions: cited from earlier work
PHH spheroids = conditions: cited from earlier work
[8] = tested on: HepG2 C3A spheroid, BSEP, Glu/Gal in HepG2 cells, bioactivation; conditions: cited from earlier work
[9] = read-out: Human plasma Cmax; total plasma Cmax.tot, median of 9 literature references; cited from earlier work
[10] = plasma free fraction; cited from earlier work
[11] = cited from earlier work; remark: listed apart in the source
PHH [12] = conditions: In vitro Assay; ref Albrecht 2019; cited from earlier work
[13] = tested on: THLE-Null and THLE-3A4 cells; conditions: In vitro Assay; ref Gustafsson 2014; cited from earlier work
[14] = tested on: isolated mouse liver mitochondria; conditions: In vitro Assay; ref Porceddu 2012; cited from earlier work
[15] = ref Chen 2011; cited from earlier work
rBsep = conditions: In vitro Assay; ref Dawson 2012; cited from earlier work
hLiMTs [16] = test: Combined HCI (HCS) and cellular ATP 3D assay in hLiMTs; conditions: for AC50 / minimal effective concentration: Homo sapiens
HepaRG spheroids = test: Combined HCI (HCS) and cellular ATP 3D assay in HepaRG spheroids; conditions: for AC50 / minimal effective concentration: Homo sapiens
[17] = In vitro Assay, ref Persson 2013
[18] = Modeled in vitro assays (cytotoxicity, mitochondrial dysfunction, BSEP), ref Aleo et al. 2019
[19] = In vitro Assay, ref Proctor 2017
[20] = Microtissue model structural based (HCI), combined HCS and ATP, MEC < 25 × Cmax.tot cut-off

Human plasma Cmax,u [1]: 6.508 µM | hLiMTs <25x Avg Cmax ATP (hLiMTs [16]; hLiMTs, ATP endpoint, cut-off <25x Avg Cmax): +ve | hLiMTs <100x Avg Cmaxu ATP (hLiMTs [16]; hLiMTs, ATP endpoint, cut-off <100x Avg Cmaxu): +ve (<100x Avg Cmaxu) | hLiMTs <25x Avg Cmax HCS (hLiMTs [16]; hLiMTs, HCS endpoints, cut-off <25x Avg Cmax): +ve | hLiMTs <100x Avg Cmaxu HCS (hLiMTs [16]; hLiMTs, HCS endpoints, cut-off <100x Avg Cmaxu): +ve (<100x Avg Cmaxu) | hLiMTs <25x Avg Cmax All (hLiMTs [16]; hLiMTs, all endpoints (ATP and HCS), cut-off <25x Avg Cmax): +ve | hLiMTs Cmax max All (hLiMTs [16]; hLiMTs, all endpoints, Cmax max used): +ve | hLiMTs Cmax min All (hLiMTs [16]; hLiMTs, all endpoints, Cmax min used): +ve | hLiMTs <10 uM All (hLiMTs [16]; hLiMTs, all endpoints, cut-off <10 uM): +ve (<10 uM) | hLiMTs <100x Avg Cmaxu All (hLiMTs [16]; hLiMTs, all endpoints, cut-off <100x Avg Cmaxu): +ve (<100x Avg Cmaxu) | HepaRG <25x Avg Cmax ATP (HepaRG spheroids; HepaRG, ATP endpoint, cut-off <25x Avg Cmax): +ve | HepaRG <100x Avg Cmaxu ATP (HepaRG spheroids; HepaRG, ATP endpoint, cut-off <100x Avg Cmaxu): +ve (<100x Avg Cmaxu) | HepaRG <25x Avg Cmax HCS (HepaRG spheroids; HepaRG, HCS endpoints, cut-off <25x Avg Cmax): +ve | HepaRG <100x Avg Cmaxu HCS (HepaRG spheroids; HepaRG, HCS endpoints, cut-off <100x Avg Cmaxu): +ve (<100x Avg Cmaxu) | HepaRG <25x Avg Cmax All (HepaRG spheroids; HepaRG, all endpoints (ATP and HCS), cut-off <25x Avg Cmax): +ve | HepaRG Cmax max All (HepaRG spheroids; HepaRG, all endpoints, Cmax max used): +ve | HepaRG Cmax min All (HepaRG spheroids; HepaRG, all endpoints, Cmax min used): +ve | HepaRG <10 uM All (HepaRG spheroids; HepaRG, all endpoints, cut-off <10 uM): +ve (<10 uM) | HepaRG <100x Avg Cmaxu All (HepaRG spheroids; HepaRG, all endpoints, cut-off <100x Avg Cmaxu): +ve (<100x Avg Cmaxu)
Compound: O=C1CN(/N=C/c2ccc([N+](=O)[O-])o2)C(=O)N1 [nitrofurantoin, reference compound]
Cytotoxicity HepG2 48 hrs (HepG2): +VE | DILI severity category (Chen et al. [2016]) ([2]; LTKB DILIrank category, ref Chen et al. 2016): Most | DILI severity category (Chen 2016) ([2]; human DILI classification, LTKB DILIrank, ref Chen et al. 2016): Most | DILI severity category ([2]; human DILI severity, ref Chen et al.): Most | DILI +VE (5-8), DILI -VE (-4) ([2]; ref Chen 2016): +VE | DILI severity category ([2]; ref Chen 2016): vMost-DILI-Concern | Structural based (HCI) (HepG2 cells [3]; In vitro Assay, ref O'Brien 2006): +VE | DILI in vitro assay prediction, O'Brien (2006) (HepG2 cells [3]; Structural based (HCI), HepG2, ref O'Brien et al. 2006): +VE (lowest HCI endpoint IC50 (or in the absence of dose–response < 100 µM) < 30 × total human plasma exposure levels (Cmax.tot)) | Cluser analysis (HepG2 cells [4]; [17]): -VE | Structural based (HCI) (HepG2 cells [4]; [17]): +VE | DILI in vitro assay prediction, Persson (2013) (HepG2 cells [4]; Structural based (HCI), HepG2, ref Persson et al. 2013): -VE | Partition Hybrid HRM Score ([5]; In vitro Assay, ref Aleo 2019): +VE | Ro2 Hybrid HRM Score ([5]; In vitro Assay, ref Aleo 2019): +VE | Partition Hybrid HRM Score ≥4, Aleo (2019) [5, 18]: +VE (Partition Hybrid HRM Score ≥4) | Partition Hybrid HRM Score ≥8, Aleo (2019) [5, 18]: -VE | Rule of Two hybrid HRM Score ≥3, Aleo (2019) [5, 18]: +VE (Rule of Two hybrid HRM Score ≥3) | Rule of Two hybrid HRM Score ≥8, Aleo (2019) [5, 18]: -VE | PHH/100uM, Proctor (2017) (PHH [6]; 2D PHH, ATP, IC50 threshold 100 µM, ref Proctor et al. 2017): +VE (IC50 threshold of 100 µM) | PHH ATP <100uM (PHH [6]; [19]): +VE (IC50 threshold of 100 µM) | hLiMTs ATP <100uM (hLiMTs [7]; [19]): +VE (IC50 threshold of 100 µM) | hLiMTs/100uM, Proctor (2017) (hLiMTs [7]; hLiMTs, ATP, IC50 threshold 100 µM, ref Proctor et al. 2017): +VE (IC50 threshold of 100 µM) | hLiMTs ATP <20 x Cmax (PHH spheroids; In vitro Assay, ref Vorrink 2018): +VE (IC20 < 20 × Cmax.tot cut-off) | DILI in vitro assay prediction, Vorrink (2018) (PHH spheroids; PHH spheroids, ATP, 14 days, IC20 < 20 × Cmax.tot, ref Vorrink et al. 2018): +VE (IC20 < 20 × Cmax.tot cut-off) | Bayesian Machine Learning DILI prediction, Williams (2019) ([8]; Bayesian modeling, ref Williams et al. 2019): +VE | Bayesian Machine Learning ([8]; In vitro Assay, ref Williams 2019): +VE | Cmax [9]: 21 µM | fu [10]: 0.310 | Assigned DILI category ([11]; Chen et al. 2016 or literature alignment, ref Chen et al. 2016): 3 | In vivo DILI ([11]; […]): +VE | In vivo DILI ([11]; ref Albrecht 2019): +VE | In vivo DILI ([11]; ref Aleo 2019): +VE | In vivo DILI ([11]; ref Dawson 2012): +VE | In vivo DILI ([11]; ref Garside 2014): +VE | In vivo DILI ([11]; ref Gustafsson 2014): +VE | In vivo DILI ([11]; ref O'Brien 2006): +VE | In vivo DILI ([11]; ref Persson 2013): +VE | In vivo DILI ([11]; ref Porceddu 2012): +VE | In vivo DILI ([11]; ref Proctor 2017): +VE | In vivo DILI ([11]; ref Vorrink 2018): +VE | In vivo DILI ([11]; ref Williams 2019): +VE | Cytotoxicity PHH 48 hrs (PHH [12]): +VE | THLE-Null [13]: -VE | in vitro data EC2<=1x Cmax [14]: +VE | in vitro data EC20<=2uM [14]: -VE | DILI Score (FDA) (1-8) [15]: 8 | Inhibition of rBsep cutoff<1& cmax u>.2 (rBsep): -VE | Inhibition of rBsep cutoff<3 (rBsep): -VE | AC50 (hLiMTs [16]; read-out: ATP endpoint AC50): 11.7 µM | minimal effective concentration (hLiMTs [16]; read-out: ATP endpoint MEC): 3.21 µM | AC50 (hLiMTs [16]; read-out: HCS endpoint AC50): 73.6 µM | minimal effective concentration (hLiMTs [16]; read-out: HCS endpoint MEC): 19.4 µM | DILI prediction hLiMTs (HCS-MEC) (hLiMTs [16]; [20]): +VE (MEC < 25 × Cmax.tot cut-off) | AC50 (HepaRG spheroids; HepaRG, read-out: ATP endpoint AC50): 11.6 µM | minimal effective concentration (HepaRG spheroids; HepaRG, read-out: ATP endpoint MEC): 9.27 µM | AC50 (HepaRG spheroids; HepaRG, read-out: HCS endpoint AC50): 17.5 µM | minimal effective concentration (HepaRG spheroids; HepaRG, read-out: HCS endpoint MEC): 5.59 µM | DILI prediction HepaRG spheroids (HCS-MEC) (HepaRG spheroids; [20]): +VE (MEC < 25 × Cmax.tot cut-off)
